Data taken from paper PMC5483439, “The Effect of Pungent and Tingling Compounds from Piper nigrum L. on Background K^+ Currents” (Frontiers in Pharmacology, 2017).

Target: T1, mKCNK3 (Mus musculus, UniProt O35111)
T1 construct: expressed in transfected cells; host or cells: Xenopus laevis oocytes injected with cRNA (plasmid pSGEM)
Assay: Two-electrode voltage clamp on Xenopus oocytes expressing mKCNK3
Format: cell-based
Details: 1–1000 μM
Description: Human KCNK3 (TASK-1, K2P3.1) cloned into the expression vector pIRES-CD8 was a gift from Dr. Fabrice Duprat (Institut National de la Santé et de la Recherche Médicale, Antipolis, France). Human KCNK18 (hTRESK, K2P18.1), cloned into the plasmid pEXO, was a gift from Dr. P. Enyedi (Semmelweis University, Budapest, Hungary). These plasmids were linearized with the restriction enzymes BamHI and XbaI, respectively, and then used as templates for in vitro transcription. Human KCNK9 (hTASK-3, K2P9.1) cloned into the expression vector pCR4-TOPO, was purchased from Imagenes (Berlin, Germany). The plasmid was linearized with the restriction enzyme SspI, to generate a linear cDNA template for in vitro transcription. mKCNK3 was isolated from mouse heart by standard procedures and inserted into pSGEM. mKCNK9 and mKCNK18 were kindly provided by Dr. D. Bayliss (University of Virginia, Charlottesville, VA, United States) and Prof. Dr. P. Enyedi (Semmelweis University, Budapest, Hungary). Both channels were subcloned into pSGEM. The pSGEM plasmids were subsequently linearized with the restriction enzyme PacI. The capped RNAs were synthesized in the presence of the capping analog m7G(5′)ppp(5′)G using the AmpliCap-T7 Message Maker kit (Epicentre, Madison, WI, United States). The cRNA was dissolved in nuclease-free water to obtain a final concentration of 100 ng/μL. […]

T1 sequence (O35111 whole entry): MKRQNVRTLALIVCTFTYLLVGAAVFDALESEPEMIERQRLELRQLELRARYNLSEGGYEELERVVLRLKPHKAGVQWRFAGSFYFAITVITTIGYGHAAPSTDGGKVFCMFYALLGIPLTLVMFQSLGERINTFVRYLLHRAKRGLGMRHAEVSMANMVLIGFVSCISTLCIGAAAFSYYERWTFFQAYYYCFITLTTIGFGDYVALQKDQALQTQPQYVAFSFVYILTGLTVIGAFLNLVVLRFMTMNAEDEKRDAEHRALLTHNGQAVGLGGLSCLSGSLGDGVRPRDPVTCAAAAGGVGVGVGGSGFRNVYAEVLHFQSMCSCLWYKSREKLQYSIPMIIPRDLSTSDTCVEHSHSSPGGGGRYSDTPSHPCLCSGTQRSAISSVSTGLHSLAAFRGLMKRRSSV

IC50: 30 ± 2.8 µM
Structure (SMILES): O=C(/C=C/C=C/c1ccc2c(c1)OCO2)N1CCCCC1 [1a, piperine]
